Compound | melting point
CC12CCc3ccccc3C1=NNC(=O)C2 (stereo not drawn) | 189 to 190 °C
O=Cc1ccc(OCCNc2nc3ccccc3o2)cc1 | 103 to 106 °C
O=C(Nc1ccccn1)Nc1csc(-c2ccccn2)n1 | 233 to 235 °C
CCCCCCC(O)CNCC(O)CO (stereo not drawn) | 85 to 90 °C
CC(CCc1ccc(N(C)C)cc1)NCC(O)c1sccc1C(N)=O (stereo not drawn) | 118 to 121 °C
COc1ccc(C2=NN(CCCCOc3ccc(C4=NNC(=O)CC4C)c(F)c3F)C(=O)C2(C)C)c2cc(C(F)(F)F)sc12 (stereo not drawn) | 137 to 138 °C
CN1C(=O)Cn2c(-c3ccccc3)nnc2-c2cc(Cl)ccc21 | 204 to 206 °C
Cc1cc(-c2ccc(Cl)cc2)nc2c(I)cnn12 | 147 to 148 °C
COC(=O)Cn1c(C(=O)Nc2nc(-c3cc(OC)c(Cl)cc3OC)c(CC3CCCCC3)s2)cc2cc(C)cc(C)c21 | 143 to 145 °C
COC(=O)c1cccc(F)c1C=NC(C)(C(N)=O)C(C)C (stereo not drawn) | 125 to 131 °C
O=C(O)CCc1cn(Cc2ccc(C(=O)NCc3ccc(C(F)(F)F)cc3)cc2)nc1-c1ccccc1 | 151 to 152 °C
Nc1ccc(Oc2cc(Cl)ncn2)cc1 | 136 to 138 °C
CC(=O)c1c(-c2ccncc2)[nH]c(-c2ccnc3ccccc23)c1C | 237 to 239 °C
COc1ccc2c(c1)S(=O)(=O)c1c(cc(OC)c(OC(C)=O)c1Br)N2 | 258 to 260 °C
NN=c1cc(-c2c[nH]nc2-c2cccc(Cl)c2)cc[nH]1 | 163 to 164 °C
N#CCCNC(=O)Sc1ccccc1 | 86 to 90 °C
O=C(O)C1=CC(CF)(CF)Oc2ccc(Cl)cc21 | 151 to 152 °C
COc1ccc(C2=NN(c3ccc(C(=O)N4CCN(c5c(Cl)cncc5Cl)CC4)cc3)C(=O)[C@@H]3CC=CC[C@H]23)cc1OC | 137 to 139 °C
CC(C)(C)c1ccc(N2C[C@H](Cn3ccnn3)OC2=O)cc1 | 140 to 142 °C
Nc1nc2c(s1)CC(CCN1CC=C(c3ccccc3)CC1)CC2 (stereo not drawn) | 177 to 182 °C
CCOC(=O)c1ccc(S(=O)(=O)Oc2c(-c3ccccc3)cc(C(=O)c3ccccc3)cc2-c2ccccc2)cc1O | 75 to 85 °C
CC(C)n1cc(C(=O)O)c2ccc([N+](=O)[O-])cc21 | 242 to 243 °C
CC(Cc1ccc(OCc2ccccc2)cc1)C(=O)O (stereo not drawn) | 93 to 95 °C
CC(=O)C(C)(C)C(C=C(Cl)C(F)(F)F)OS(C)(=O)=O (stereo not drawn) | 50 to 52 °C
Cc1ncc(CCC(=O)O)s1 | 120 °C
COc1ccc(-c2ccc(C(=O)O)c(C(=O)O)c2)c2c1OCCO2 | 192 to 196 °C
Cc1c(O)nc2ccc(F)cc2c1C(=O)O | > 305 °C
CC(=O)OC1CSC(Oc2cccc(C(C)=O)c2)C(OC(C)=O)C1OC(C)=O (stereo not drawn) | 150 to 153 °C
COc1cc(OC)c(C(C)=O)c(O)c1OC | 114 to 116 °C

Other lines, results leading:

melting point | Compound
205 °C | COC(=O)c1ccc(Cl)c(C2(O)C(=O)N(Cc3ccc(Cl)cc3OC)c3ccc(Cl)cc32)c1 (stereo not drawn)
198 °C | Cc1c(Cl)ccc(C(=O)O)c1F
208 to 210 °C | Cn1cc(CS(C)=O)c(=O)c2ccc(C(F)(F)F)cc21 (stereo not drawn)
152 to 156 °C | CC1Oc2ccc(Cn3ccnc3)cc2NC1N (stereo not drawn)
48 to 50 °C | CCCCCCCCCCCCCCCCCCOc1cc(OCCCCC(=O)OC)cc(N(CC(=O)OCc2ccccc2)CC(=O)OCc2ccccc2)c1
161 to 167 °C | Brc1ccc(Cc2cc(Br)c(Cc3ccc(Br)cc3)cc2Br)cc1
87 to 89 °C | O=C(Nc1ccccc1-c1ccccc1)OCCCC(=O)c1ccccc1
189 to 191 °C | NC(=O)CNC(=S)Nc1c(Cl)cccc1Cl
78 to 80 °C | CCCc1ccc(CCCOc2c(C)cc(-c3nnn(C)n3)cc2C)nn1
101 to 109 °C | CCCCn1c(=O)c2c(Cl)cc(Cl)cc2n(Cc2ccccc2)c1=O
53 to 54 °C | Cc1cc(Oc2cccc(C(F)(F)F)c2)nn1C(=O)Nc1ccccc1
120 to 122 °C | CS(=O)(=O)c1ccc(-c2c(F)c3cccccc-3c2-c2ccccc2)cc1
122 to 123 °C | CCC(=CC(CNC(=O)c1cnccc1C(N)=O)=NO)C(C)[N+](=O)[O-] (stereo not drawn)
148 to 150 °C | CN1C(=O)CC[C@]2(C)c3ccc(-c4ccc(C#N)cc4)cc3CC[C@@H]12
228 to 229 °C | COC(=O)Nc1ccc(C2=NNC(=O)CC2C)cc1 (stereo not drawn)
66 to 68 °C | O=C(O)C(F)c1ccc(Cl)cc1 (stereo not drawn)
228 to 230 °C | CC(C)(C)c1ccc(Nc2cccc3c2C(=O)N(C2CCC(=O)NC2=O)C3=O)cc1 (stereo not drawn)
140 to 142 °C | COc1cc(-n2nc3ccc(Cl)cn3c2=O)c(F)cc1Cl
132 to 133 °C | COc1ccc(C(=O)c2ccccc2F)c(O)c1Cl
214 to 215 °C | CCOc1ccc(-c2nc3n(c2-c2ccc(OCC)cc2)CCS3)cc1
232 to 234 °C | Nc1nc2c(Oc3cc(-c4ccc(C(F)(F)F)cc4)ncn3)cccc2s1
222 to 225 °C | Cc1ccc2nc(N)nc(N)c2c1-c1cc(C(F)(F)F)cc(C(F)(F)F)c1

melting point | Compound
109 to 111 °C | C=C(C)CCOc1c(-c2ccc(S(C)(=O)=O)cc2)cnn(-c2ccc(F)cc2)c1=O
147 to 149 °C | COC(=O)COc1ccc2cc(-c3cnc(Cc4ccc5ccccc5c4)o3)ccc2c1
204 to 206 °C | C(=Cc1cncn1Cc1ccccc1)CC(c1ccccc1)c1ccccc1
78 to 79 °C | CC(C)Oc1ccc(/C=C(\NC(=O)c2ccc(OCCc3ccc4ccccc4c3)cc2)C(=O)NCCO)cc1
170 °C | NS(=O)(=O)c1cc(C(=O)OCC(=O)N2CCC(CCO[N+](=O)[O-])CC2)c(NCc2ccco2)cc1Cl
126 to 128 °C | O=C(O)Cc1ccc2c(c1)C(=O)c1ccccc1CO2
188 to 191 °C | CCc1nc2c(N)nc3ccccc3c2n1CCOCCNC(=O)c1ccccc1
190 to 191 °C | COC(=O)C1=C(C)Nc2ccccc2SC1c1cccc(Cl)c1Cl (stereo not drawn)
115 to 117 °C | COc1cc(Br)cc2c(N(C)C)cc(C)nc12
103 to 104 °C | O=C(c1ccc(Cl)cc1)c1ccc(CBr)cc1
199 to 200 °C | NC(=O)N1C(=O)C(=C(OCC(=O)C2COCOC2)c2cccs2)c2cc(F)c(Cl)cc21
172 °C | C=CCNC(=S)N1CCc2[nH]cnc2C1
79 to 81 °C | Cc1ccc(C(=O)C(F)(F)S(=O)(=O)c2ccccc2)cc1
187 to 189 °C | Cc1c(C(=O)Nc2ccc(OCCN3CCOCC3)c(C#N)c2)cnn1-c1ccc(Cl)cc1
149 to 151 °C | COC(=O)c1c(Cl)cc(Cl)cc1NC(=O)CSc1ccc(O)cc1
109 °C | CNS(=O)(=O)c1cc(C)sc1CC(=O)O
62 °C | CCOC(=O)CC(=CNc1ncccc1C)C(=O)OCC
174 to 175 °C | CCOC(=O)c1cnc2cn[nH]c2c1Nc1ccsc1
268 to 269 °C | CCCn1c(=O)c2[nH]c(/C=C/c3cc(C)c(OC)cc3C)nc2n(CCC)c1=O
42 to 44 °C | C#CCCCCCCCCCCCCCO
205 to 207 °C | Cc1ccc(-n2nc(C(C)(C)C)cc2NC(=O)Nc2ccc(OCCN3CCS(=O)CC3)c3ccccc23)cc1
145 to 155 °C | O=C(O)[C@H]1CN(C(=O)OCc2ccccc2)CCN1c1cc(Cl)ccc1[N+](=O)[O-]

— a melting point compilation (Tetko et al.; mined from patent text by program, amines drawn as free bases though some values may be those of a salt)
